Test results published in patent publication US20140288074A1, “FUNGICIDAL PYRAZOLES” (E I DU PONT DE NEMOURS AND COMPANY, priority 2013, published 2014).
Marks after values point to notes of the source that are not given here.

Legend:
Type in all cases: in vivo
Septoria tritici = assay: Test D: preventive spray on wheat seedlings, wheat leaf blotch, visual disease rating; conditions: for pest or weed control at 200 ppm / Test D rating (disease control): 200 ppm test suspension, Septoria tritici inoculated the day after spraying
Method in brief: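 Wheat seedlings sprayed to run-off with 200 ppm suspension (≈800 g/ha; asterisked ratings 40 ppm), then inoculated with S. tritici spores next day. Held 48 h saturated at 24 °C, then 19 days at 20 °C. Visual rating 0–100% disease control versus controls, triplicate mean.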

Botrytis cinerea = assay: Test A: preventive spray on tomato seedlings, tomato Botrytis, visual disease rating; conditions: for pest or weed control at 200 ppm / Test A rating (disease control): 200 ppm test suspension, Botrytis cinerea inoculated the day after spraying
Method in brief: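 Tomato seedlings were sprayed to run-off with test suspension, 200 ppm (≈800 g/ha) unless marked 40 ppm, in acetone/water with surfactant. They were inoculated with Botrytis cinerea spores next day, held 48 h saturated at 20 °C, then 3 days at 24 °C. Disease control was rated visually, 0–100 relative to controls, in triplicate.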

[1] = tested on: Puccinia recondita f. sp. tritici; assay: Test F: preventive spray on wheat seedlings, wheat leaf rust, visual disease rating; conditions: for pest or weed control at 200 ppm / Test F rating (disease control): 200 ppm test suspension, Puccinia recondita f. sp. tritici inoculated the day after spraying
Method in brief: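 Compounds in acetone/water (50/50) with 250 ppm Trem 014, sprayed to run-off on seedlings at 200 ppm (800 g/ha) or 40 ppm where marked. Inoculated next day, 24 h saturated atmosphere at 20° C then 6 days at 20° C; visual rating, 100 = full control vs controls, triplicate averaged.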

[2] = tested on: Blumeria graminis f. sp. tritici; assay: Test G: preventive spray on wheat seedlings, wheat powdery mildew, visual disease rating;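 as to all read-outs here: rated 8 days after spore dust inoculation at 20 °C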; conditions: for pest or weed control at 200 ppm / Test G rating (disease control): 200 ppm test suspension, Blumeria graminis f. sp. tritici inoculated the day after spraying
Method in brief: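 Wheat seedlings sprayed to run-off with 200 ppm suspension (about 800 g/ha; asterisked values 40 ppm) in acetone/water with 250 ppm Trem 014. Inoculated next day with B. graminis spore dust and held at 20 °C for 8 days. Visual rating, 0–100 % disease control versus controls; triplicate, averaged.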

Alternaria solani = assay: Test B: preventive spray on tomato seedlings, tomato early blight, visual disease rating
Experimental: General protocol for preparing test suspensions for Tests A-G: the test compounds were first dissolved in acetone in an amount equal to 3% of the final volume and then suspended at the desired concentration (in ppm) in acetone and purified water (50/50 mix by volume) containing 250 ppm of the surfactant Trem® 014 (polyhydric alcohol esters). The resulting test suspensions were then used in Tests A-G. Each test was conducted in triplicate, and the results were averaged. Spraying a 200 ppm test suspension to the point of run-off on the test plants was the equivalent of a rate of 800 g/ha. Unless otherwise indicated, the rating values indicate a 200 ppm test suspension was used. (An asterisk “*” next to the rating value indicates a 40 ppm test suspension was used.) The test suspension was sprayed to the point of run-off on tomato seedlings. The following day the seedlings were inoculated with a spore suspension of Alternaria solani (the causal agent of tomato early blight) and incubated in a saturated atmosphere at 27° C. for 48 h, and then moved to a growth chamber at 20° C. for 5 days, after which time visual disease ratings were made. Results for Tests A-G are given in Table A. In the Table, a rating of 100 indicates 100% disease control and a rating of 0 indicates no disease control (relative to the controls). A hyphen (-) indicates no test results.

[3] = 200 ppm test suspension, Alternaria solani inoculated the day after spraying

Compound | pest or weed control at 200 ppm (Septoria tritici; Zymoseptoria tritici, 504 h) [%] | pest or weed control at 200 ppm (Botrytis cinerea; 120 h) [%] | pest or weed control at 200 ppm ([1]; 168 h) [%] | pest or weed control at 200 ppm ([2]; 192 h) [%] | Test B rating (disease control) (Alternaria solani; [3]) [%] | Test D rating (disease control) (Septoria tritici) [%] | Test A rating (disease control) (Botrytis cinerea) [%] | Test F rating (disease control) [1] [%] | Test G rating (disease control) [2] [%] | pest or weed control at 40 ppm (Septoria tritici; Zymoseptoria tritici, 504 h, 40 ppm test suspension (asterisk), Septoria tritici) [%] | pest or weed control at 40 ppm (Botrytis cinerea; 120 h, 40 ppm test suspension (asterisk), Botrytis cinerea) [%] | pest or weed control at 40 ppm ([1]; 168 h, 40 ppm test suspension (asterisk), Puccinia recondita f. sp. tritici, preventive) [%] | pest or weed control at 40 ppm ([2]; 192 h, 40 ppm test suspension (asterisk), Blumeria graminis f. sp. tritici) [%] | Test B rating (disease control) (Alternaria solani; 40 ppm test suspension (asterisk), Alternaria solani)
Cc1nn(C)c(C(O)C(C)C)c1-c1ccc(F)cc1Cl (stereo not drawn) [Compound 2, 4-(2-chloro-4-fluorophenyl)-1,3-dimethyl-α-(1-methylethyl)-1H-pyrazole-5-methanol] | 100 | 100 | 99 | 97 | 0 |  |  |  |  |  |  |  |  | 
CCCNc1c(-c2ccc(Cl)cc2Cl)c(C)nn1C [Compound 3] |  |  |  |  | 21 | 92 | 65 | 0 | 0 |  |  |  |  | 
Cc1nn(C)c(NCC(C)C)c1-c1ccc(Cl)cc1Cl [Compound 4, 4-(2,4-dichlorophenyl)-1,3-dimethyl-N-(2-methylpropyl)-1H-pyrazol-5-amine] | 99 | 99 | 0 | 93 | 94 |  |  |  |  |  |  |  |  | 
CCCCNc1c(-c2ccc(Cl)cc2Cl)c(C)nn1C [Compound 5, N-butyl-4-(2,4-dichlorophenyl)-1,3-dimethyl-1H-pyrazol-5-amine] | 88 | 98 | 27 | 58 | 0 |  |  |  |  |  |  |  |  | 
Cc1nn(C)c(NC2CCCCC2)c1-c1ccc(F)cc1F [Compound 6, N-cyclohexyl-4-(2,4-difluorophenyl)-1,3-dimethyl-1H-pyrazol-5-amine] | 100 | 99 | 17 | 91 | 99 |  |  |  |  |  |  |  |  | 
CCC(C)C(O)c1c(-c2ccc(F)cc2Cl)c(C)nn1C (stereo not drawn) [Compound 8, 4-(2-chloro-4-fluorophenyl)-1,3-dimethyl-α-(1-methylpropyl)-1H-pyrazole-5-methanol] | 100 | 95 | 100 | 99 | 99 |  |  |  |  |  |  |  |  | 
Cc1nn(C)c(C(O)C(C)(C)CCC#N)c1-c1c(F)cccc1F (centres unmarked) [Compound 9] |  |  |  |  | 0 | 98 | 26 | 9 | 53 |  |  |  |  | 
Cc1nn(C)c(C(O)C2=CCCCC2)c1-c1c(F)cccc1F (centres unmarked) [Compound 10] |  |  |  |  | 99 | 92 | 99 | 86 | 85 |  |  |  |  | 
Cc1nn(C)c(C(O)CC(C)C)c1-c1c(F)cccc1F (centres unmarked) [Compound 11] |  |  |  |  | 81 | 98 | 67 | 89 | 99 |  |  |  |  | 
C=CCC(C)(C)C(O)c1c(-c2c(F)cccc2F)c(C)nn1C (centres unmarked) [Compound 12] |  |  |  |  | 32 | 83 | 0 | 41 | 99 |  |  |  |  | 
CCCCC(CC)C(O)c1c(-c2c(F)cccc2F)c(C)nn1C (centres unmarked) [Compound 13] |  |  |  |  | 0 | 55 | 0 | 28 | 96 |  |  |  |  | 
CCCC(O)c1c(-c2c(F)cccc2F)c(C)nn1C (centres unmarked) [Compound 14] |  |  |  |  | 0 | 62 | 33 | 74 | 99 |  |  |  |  | 
CCC(C)C(O)c1c(-c2c(F)cccc2F)c(C)nn1C (centres unmarked) [Compound 15] |  |  |  |  | 99 | 100 | 67 | 74 | 99 |  |  |  |  | 
CCC(C)C(O)c1c(-c2c(F)cccc2Cl)c(C)nn1C (stereo not drawn) [Compound 19, 4-(2-chloro-6-fluorophenyl)-1,3-dimethyl-α-(1-methylpropyl)-1H-pyrazole-5-methanol] |  |  |  |  |  |  |  |  |  | 89 | 77 | 19 | 95 | 0* %
Cc1nn(C)c(C(O)CC(C)C)c1-c1c(F)cccc1Cl (centres unmarked) [Compound 20] |  |  |  |  | 93 | 100 | 92 | 86 | 99 |  |  |  |  | 
CCCC(O)c1c(-c2c(F)cccc2Cl)c(C)nn1C (centres unmarked) [Compound 21] |  |  |  |  | 56 | 97 | 75 | 74 | 99 |  |  |  |  | 
